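These data come from cells grown in 96-well plates and exposed to compound for 48 hours at five concentrations. GI50 marks 50% less growth. The concentration for full growth arrest is given as TGI.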
Key:
Test in all cases: NCI anticancer screen, dose series, 48 h
EKVX NSCLC = tested on: EKVX NSCLC
DU-145 prostate = tested on: DU-145 prostate
SK-MEL-28 melanoma = tested on: SK-MEL-28 melanoma
M14 melanoma = tested on: M14 melanoma
SNB-75 CNS = tested on: SNB-75 CNS
SR leukemia = tested on: SR leukemia
MCF7 breast = tested on: MCF7 breast
NCI-H522 lung = tested on: NCI-H522 lung
NCI-H460 lung = tested on: NCI-H460 lung
SK-MEL-5 melanoma = tested on: SK-MEL-5 melanoma
CCRF-CEM leukemia = tested on: CCRF-CEM leukemia
OVCAR-5 ovarian = tested on: OVCAR-5 ovarian
TK-10 renal = tested on: TK-10 renal
IGROV1 ovarian = tested on: IGROV1 ovarian
KM12 colon = tested on: KM12 colon
OVCAR-3 ovarian = tested on: OVCAR-3 ovarian
MALME-3M melanoma = tested on: MALME-3M melanoma
A549 NSCLC = tested on: A549 NSCLC
CAKI-1 renal = tested on: CAKI-1 renal
SNB-19 CNS = tested on: SNB-19 CNS
U251 CNS = tested on: U251 CNS
A498 renal = tested on: A498 renal
NCI/ADR-RES ovarian = tested on: NCI/ADR-RES ovarian
LOX IMVI melanoma = tested on: LOX IMVI melanoma
RPMI-8226 leukemia = tested on: RPMI-8226 leukemia
786-0 renal = tested on: 786-0 renal
MDA-MB-231 breast = tested on: MDA-MB-231 breast
SF-268 CNS = tested on: SF-268 CNS
HS 578T breast = tested on: HS 578T breast
ACHN renal = tested on: ACHN renal
COLO 205 colon = tested on: COLO 205 colon
HCT-15 colon = tested on: HCT-15 colon
SF-539 CNS = tested on: SF-539 CNS
SW-620 colon = tested on: SW-620 colon
OVCAR-8 ovarian = tested on: OVCAR-8 ovarian
HT29 colon = tested on: HT29 colon
MOLT-4 leukemia = tested on: MOLT-4 leukemia
HL-60(TB) leukemia = tested on: HL-60(TB) leukemia
NCI-H226 lung = tested on: NCI-H226 lung
UACC-62 melanoma = tested on: UACC-62 melanoma
SK-OV-3 ovarian = tested on: SK-OV-3 ovarian
SN12C renal = tested on: SN12C renal
MDA-N = tested on: MDA-N
HOP-62 NSCLC = tested on: HOP-62 NSCLC
K-562 leukemia = tested on: K-562 leukemia
HCT-116 colon = tested on: HCT-116 colon
HOP-92 NSCLC = tested on: HOP-92 NSCLC
NCI-H23 lung = tested on: NCI-H23 lung
SK-MEL-2 melanoma = tested on: SK-MEL-2 melanoma
OVCAR-4 ovarian = tested on: OVCAR-4 ovarian
RXF 393 renal = tested on: RXF 393 renal
UO-31 renal = tested on: UO-31 renal
SF-295 CNS = tested on: SF-295 CNS
UACC-257 melanoma = tested on: UACC-257 melanoma
HCC-2998 colon = tested on: HCC-2998 colon
T-47D breast = tested on: T-47D breast
PC-3 prostate = tested on: PC-3 prostate
MDA-MB-435 = tested on: MDA-MB-435

CC(C)=Cc1cc2c(cc1O)CCC1C2CC[C@@]2(C)C1CC[C@@H]2O (stereo partly drawn)
TGI (EKVX NSCLC): 31.5 µM
TGI (DU-145 prostate): 27.7 µM
TGI (SK-MEL-28 melanoma): 30.2 µM
TGI (M14 melanoma): 22.8 µM
TGI (SNB-75 CNS): 24.8 µM
TGI (SR leukemia): 6.94 µM
TGI (MCF7 breast): 37.4 µM
TGI (NCI-H522 lung): 31.2 µM
TGI (NCI-H460 lung): 26.1 µM
TGI (SK-MEL-5 melanoma): 19.3 µM
TGI (CCRF-CEM leukemia): 40.8 µM
TGI (OVCAR-5 ovarian): 31.8 µM
TGI (TK-10 renal): 9.68 µM
TGI (IGROV1 ovarian): 29.9 µM
TGI (KM12 colon): 25.3 µM
GI50 (OVCAR-3 ovarian): 5.27 µM
TGI (OVCAR-3 ovarian): 19.9 µM
TGI (MALME-3M melanoma): 22.5 µM
TGI (A549 NSCLC): 27.5 µM
TGI (CAKI-1 renal): 29.5 µM
TGI (SNB-19 CNS): 24.4 µM
TGI (U251 CNS): 22.2 µM
TGI (A498 renal): 29.9 µM
TGI (NCI/ADR-RES ovarian): 28 µM
TGI (LOX IMVI melanoma): 16.1 µM
TGI (RPMI-8226 leukemia): 26 µM
TGI (786-0 renal): 25 µM
TGI (MDA-MB-231 breast): 35.2 µM
TGI (SF-268 CNS): 36.2 µM
TGI (HS 578T breast): 65.6 µM
TGI (ACHN renal): 29.5 µM
TGI (COLO 205 colon): 32.7 µM
TGI (HCT-15 colon): 24.4 µM
GI50 (SF-539 CNS): 7.6 µM
TGI (SF-539 CNS): 22.4 µM
TGI (SW-620 colon): 23.6 µM
TGI (OVCAR-8 ovarian): 40.7 µM
TGI (HT29 colon): 30.8 µM
TGI (MOLT-4 leukemia): 25.3 µM
TGI (HL-60(TB) leukemia): 37.5 µM
TGI (NCI-H226 lung): 26.1 µM
GI50 (UACC-62 melanoma): 11 µM
TGI (UACC-62 melanoma): 24.7 µM
TGI (SK-OV-3 ovarian): 35 µM
TGI (SN12C renal): 30 µM
TGI (MDA-N): 7.14 µM
GI50 (HOP-62 NSCLC): 15 µM
TGI (HOP-62 NSCLC): 31.7 µM
TGI (K-562 leukemia): 13.8 µM
TGI (HCT-116 colon): 23.4 µM
TGI (HOP-92 NSCLC): 42.1 µM
TGI (NCI-H23 lung): 35.2 µM
TGI (SK-MEL-2 melanoma): 32.7 µM
TGI (OVCAR-4 ovarian): 61 µM
TGI (RXF 393 renal): 20.9 µM
TGI (UO-31 renal): 27.4 µM
TGI (SF-295 CNS): 7.57 µM
TGI (UACC-257 melanoma): 30.5 µM
TGI (HCC-2998 colon): 31.8 µM
TGI (T-47D breast): 89.5 µM
TGI (PC-3 prostate): 28.6 µM
GI50 (MDA-MB-435): 3.02 µM
TGI (MDA-MB-435): 11.7 µM

Source: PubChem BioAssay (NCI)
